Drawing on EP4793641A1, “NOVEL METHOD FOR ANALYZING BIOMOLECULAR INTERACTIONS” (Kyoto University, priority 2023, dated 2025), this text covers Inhibitory activity and IC50 for 17 molecules.

Non-standard residues stand in square brackets, D forms with d. Residues, ends and D or L forms follow the SMILES beside them. pT = C[C@@H](OP(=O)(O)O)[C@H](N)C(=O)O; pS = N[C@@H](COP(=O)(O)O)C(=O)O

The first assay deals with T1, interactions between Talin 1 (TLN1) and integrin subunit beta (ITGB) (Homo sapiens, UniProt Q9Y490).
T1 construct: LgBit or SmBit (N-terminal of the HaloTag); made in house
Nature of the assay: Flip-flop detection mechanism on DNA origami (LgBit/SmBit luminescence), inhibitor screening. In kind it is biochemical. Particulars: inhibition of binding between TLN1 and ITBG. From the text: Two types of systems, i.e., flip-flop detection mechanism and switch detection mechanism, were constructed by using HaloTag, LgBit, SmBit, TLN1, and ITGB. Each of TLN1 (Uniprot ID: Q9Y490) and ITGB1 (Uniprot ID: P05556) was cloned from the registered genetic information. HaloTAg has three chemically modifiable locations at a ligand recognition site, C-terminus, and N-terminus. In this Example, a single-stranded DNA for attaching to DNA origami was connected to a ligand recognition site of HaloTag, a subunit of an interaction complex was connected to the C-terminus, and LgBit or SmBit was connected to the N-terminus.
The outline of the system is disclosed in Figure 23. When TLN1 and ITBG are in a bound state in this system, LgBit and SmBit are at spatially separated positions from each other, with a HaloTag interposed therebetween. In this regard, if an inhibitor is added, complex formation of TLN1 and ITBG is inhibited. As a result, a LgBit-SmBit complex can be formed, and a luminescence reaction progresses.
As a candidate drug for inhibiting the binding between TLN1 and ITBG, peptide inhibitors consisting of 13 amino acids prepared by modifying amino acids in an intracellular region of ITGB3 have been designed (Shen B. et al., A directional switch of integrin signaling and a new antithrombotic strategy. Nature 503, 131-135 (2013)). IC50 values for the peptides shown in the following table were calculated by using the flip-flop detection mechanism described in Example 11 for optimizing the sequence. In this manner, the effect of a large number of compounds on the interaction with a target protein can be readily analyzed in the system of the present disclosed.
Take `CSCC[C@H](NC(=O)[C@H](CCCCN)NC(=O)[C@H](CCC(=O)O)NC(=O)[C@H](CCCCN)NC(=O)[C@H](CCC(=O)O)NC(=O)[C@H](C)NC(=O)[C@@H](N)CCCCN)C(=O)N[C@@H](CC(N)=O)C(=O)N[C@@H](C)C(=O)N[C@@H](CCCCN)C(=O)N[C@@H](C)C(=O)N[C@@H](CC(=O)O)C(=O)N[C@H](C(=O)O)[C@@H](C)O` [FIYM2] (H-KAEKEKMNAKADT-OH): the Inhibitory activity entry was “no inhibition”.

In the case of `CSCC[C@H](NC(=O)[C@H](CC(N)=O)NC(=O)[C@@H](N)CCC(=O)O)C(=O)N[C@@H](CCCCN)C(=O)N[C@@H](CCC(=O)O)C(=O)N[C@@H](CCCCN)C(=O)N[C@@H](CCCCN)C(=O)N[C@@H](CC(=O)O)C(=O)N[C@@H](Cc1c[nH]c2ccccc12)C(=O)N[C@@H](C)C(=O)N[C@@H](CCCCN)C(=O)N[C@@H](Cc1ccccc1)C(=O)N[C@H](C(=O)O)[C@@H](C)O` [FIYM3] (H-ENMKEKKDWAKFT-OH), the Inhibitory activity entry is “no inhibition”.

For `CC[C@H](C)[C@H](NC(=O)[C@@H]1CCCN1C(=O)[C@H](CC(N)=O)NC(=O)[C@H](CCC(=O)O)NC(=O)CNC(=O)[C@@H](NC(=O)[C@H](CC(=O)O)NC(=O)[C@H](Cc1c[nH]c2ccccc12)NC(=O)[C@@H](N)CCCCN)[C@@H](C)O)C(=O)N[C@@H](Cc1ccc(O)cc1)C(=O)N[C@@H](CCCCN)C(=O)O` [FIYM4] (H-KWDTGENPIYK-OH), the Inhibitory activity result is “no inhibition”.

For `CSCC[C@H](NC(=O)[C@H](CCCCN)NC(=O)[C@H](CCC(=O)O)NC(=O)[C@H](CCCCN)NC(=O)[C@H](CCC(=O)O)NC(=O)[C@H](Cc1ccccc1)NC(=O)[C@H](CCCCN)NC(=O)[C@H](C)NC(=O)[C@H](Cc1ccccc1)NC(=O)[C@@H](N)CCC(=O)O)C(=O)N[C@@H](CC(N)=O)C(=O)N[C@@H](C)C(=O)N[C@@H](CCCCN)C(=O)N[C@@H](Cc1c[nH]c2ccccc12)C(=O)N[C@@H](CC(=O)O)C(=O)N[C@H](C(=O)O)[C@@H](C)O` [FIYM5] (H-EFAKFEKEKMNAKWDT-OH), the Inhibitory activity entry is on record as “no inhibition”.

As for `CC[C@H](C)[C@H](NC(=O)[C@@H]1CCCN1C(=O)[C@H](CC(N)=O)NC(=O)[C@H](CCC(=O)O)NC(=O)CNC(=O)[C@@H](NC(=O)[C@H](CC(=O)O)NC(=O)[C@H](Cc1c[nH]c2ccccc12)NC(=O)[C@H](CCCCN)NC(=O)[C@H](C)NC(=O)[C@H](CC(N)=O)NC(=O)[C@H](CCSC)NC(=O)[C@H](CCCCN)NC(=O)[C@H](CCC(=O)O)NC(=O)[C@H](CCCCN)NC(=O)[C@H](CCC(=O)O)NC(=O)[C@H](Cc1ccccc1)NC(=O)[C@@H](N)CCCCN)[C@@H](C)O)C(=O)N[C@@H](Cc1ccc(O)cc1)C(=O)N[C@@H](CCCCN)C(=O)O` [FIYM6] (H-KFEKEKMNAKWDTGENPIYK-OH), the Inhibitory activity entry is listed as “no inhibition”.

Take `CC[C@H](C)[C@H](NC(=O)[C@@H]1CCCN1C(=O)[C@H](CC(N)=O)NC(=O)[C@H](CCC(=O)O)NC(=O)CNC(=O)[C@@H](NC(=O)[C@H](CC(=O)O)NC(=O)[C@H](Cc1c[nH]c2ccccc12)NC(=O)[C@H](CCCCN)NC(=O)[C@H](C)NC(=O)[C@H](CC(N)=O)NC(=O)[C@H](CCSC)NC(=O)[C@H](CCCCN)NC(=O)[C@H](CCC(=O)O)NC(=O)[C@H](CCCCN)NC(=O)[C@H](CCC(=O)O)NC(=O)[C@H](Cc1ccccc1)NC(=O)[C@H](CCCCN)NC(=O)[C@H](C)NC(=O)[C@H](Cc1ccccc1)NC(=O)[C@@H](N)CCC(=O)O)[C@@H](C)O)C(=O)N[C@@H](Cc1ccc(O)cc1)C(=O)N[C@@H](CCCCN)C(=O)O` [FIYM7] (H-EFAKFEKEKMNAKWDTGENPIYK-OH): the Inhibitory activity entry is recorded as “no inhibition”.

For `CSCC[C@H](NC(=O)[C@H](CCCCN)NC(=O)[C@H](CCC(=O)O)NC(=O)[C@H](CCCCN)NC(=O)[C@H](CCC(=O)O)NC(=O)[C@H](Cc1ccccc1)NC(=O)[C@@H](N)CCCCN)C(=O)N[C@@H](CC(N)=O)C(=O)N[C@@H](CS)C(=O)N[C@@H](CCCCN)C(=O)N[C@@H](Cc1c[nH]c2ccccc12)C(=O)N[C@@H](CC(=O)O)C(=O)N[C@H](C(=O)O)[C@@H](C)O` [FIYM8] (H-KFEKEKMNCKWDT-OH), the Inhibitory activity result is given as “no inhibition”.

As to `CSCC[C@H](NC(=O)[C@H](CCCCN)NC(=O)[C@H](CCC(=O)O)NC(=O)[C@H](CCCCN)NC(=O)[C@H](CCC(=O)O)NC(=O)[C@H](Cc1ccccc1)NC(=O)[C@@H](N)CCCCN)C(=O)N[C@@H](CC(N)=O)C(=O)N[C@@H](C)C(=O)N[C@@H](CCCCN)C(=O)N[C@@H](Cc1c[nH]c2ccccc12)C(=O)N[C@@H](CCSC)C(=O)N[C@H](C(=O)O)[C@@H](C)O` [FIYM9] (H-KFEKEKMNAKWMT-OH), the Inhibitory activity result was “no inhibition”.

Take `CSCC[C@H](NC(=O)[C@H](Cc1c[nH]c2ccccc12)NC(=O)[C@H](CCCCN)NC(=O)[C@H](CS)NC(=O)[C@H](CC(N)=O)NC(=O)[C@H](CCSC)NC(=O)[C@H](CCCCN)NC(=O)[C@H](CCC(=O)O)NC(=O)[C@H](CCCCN)NC(=O)[C@H](CCC(=O)O)NC(=O)[C@H](Cc1ccccc1)NC(=O)[C@@H](N)CCCCN)C(=O)N[C@@H](CCCCN)C(=O)O` [FIYM11] (H-KFEKEKMNCKWMK-OH): the Inhibitory activity entry is recorded as “no inhibition”.

Turning to `CSCC[C@H](NC(=O)[C@H](Cc1c[nH]c2ccccc12)NC(=O)[C@H](CCCCN)NC(=O)[C@H](CS)NC(=O)[C@H](CC(N)=O)NC(=O)[C@H](CCSC)NC(=O)[C@H](CCCCN)NC(=O)[C@H](CCC(=O)O)NC(=O)[C@H](CCCCN)NC(=O)[C@H](CCC(=O)O)NC(=O)[C@H](Cc1ccccc1)NC(=O)[C@@H](N)CCCCN)C(=O)N[C@@H](CCCNC(=N)N)C(=O)O` [FIYM12] (H-KFEKEKMNCKWMR-OH), the Inhibitory activity entry is “no inhibition”.

Consider `CSCC[C@H](NC(=O)[C@H](CCCCN)NC(=O)[C@H](CCC(=O)O)NC(=O)[C@H](CCCCN)NC(=O)[C@H](CCC(=O)O)NC(=O)[C@H](Cc1ccccc1)NC(=O)[C@@H](N)CCCCN)C(=O)N[C@@H](CC(N)=O)C(=O)N[C@@H](CS)C(=O)N[C@@H](CCCCN)C(=O)N[C@@H](Cc1c[nH]c2ccccc12)C(=O)N[C@@H](CCSC)C(=O)N[C@H](C(=O)O)[C@@H](C)OP(=O)(O)O` [FIYM13] (H-KFEKEKMNCKWM[pT]-OH), for which the Inhibitory activity entry is given as “no inhibition”.

`CSCC[C@H](NC(=O)[C@H](Cc1c[nH]c2ccccc12)NC(=O)[C@H](CCCCN)NC(=O)[C@H](CS)NC(=O)[C@H](CC(N)=O)NC(=O)[C@H](CCSC)NC(=O)[C@H](CCCCN)NC(=O)[C@H](CCC(=O)O)NC(=O)[C@H](CCCCN)NC(=O)[C@H](CCC(=O)O)NC(=O)[C@H](Cc1ccccc1)NC(=O)[C@@H](N)CCCCN)C(=O)N[C@@H](COP(=O)(O)O)C(=O)O` [FIYM14] (H-KFEKEKMNCKWM[pS]-OH): the Inhibitory activity result is “no inhibition”.

As for `CSCC[C@H](NC(=O)[C@H](CCCCN)NC(=O)[C@H](CCC(=O)O)NC(=O)[C@H](CCCNC(=N)N)NC(=O)[C@H](CCC(=O)O)NC(=O)[C@H](Cc1ccccc1)NC(=O)[C@@H](N)CCCNC(=N)N)C(=O)N[C@@H](CC(N)=O)C(=O)N[C@@H](CS)C(=O)N[C@@H](CCCNC(=N)N)C(=O)N[C@@H](Cc1c[nH]c2ccccc12)C(=O)N[C@@H](CCSC)C(=O)N[C@H](C(=O)O)[C@@H](C)O` [FIYM16] (H-RFEREKMNCRWMT-OH), the Inhibitory activity entry is listed as “no inhibition”.

`CSCC[C@H](NC(=O)[C@H](CCCNC(=N)N)NC(=O)[C@H](CCC(=O)O)NC(=O)[C@H](Cc1ccccc1)NC(=O)[C@@H](N)CCCCN)C(=O)N[C@@H](CC(N)=O)C(=O)N[C@@H](CS)C(=O)N[C@@H](CCCCN)C(=O)N[C@@H](Cc1c[nH]c2ccccc12)C(=O)N[C@@H](CCSC)C(=O)N[C@H](C(=O)O)[C@@H](C)O` [FIYM20] (H-KFERMNCKWMT-OH): the Inhibitory activity entry is on record as “no inhibition”.

The assay is the same for the next values; noted with them: inhibition of binding between TLN1 and ITBG, read-out: Inhibitory activity.
Regarding `CSCC[C@H](NC(=O)[C@H](CCCCN)NC(=O)[C@H](CCC(=O)O)NC(=O)[C@H](CCCCN)NC(=O)[C@H](CCC(=O)O)NC(=O)[C@H](Cc1ccccc1)NC(=O)[C@@H](N)CCCCN)C(=O)N[C@@H](CC(N)=O)C(=O)N[C@@H](C)C(=O)N[C@@H](CCCCN)C(=O)N[C@@H](Cc1c[nH]c2ccccc12)C(=O)N[C@@H](CC(=O)O)C(=O)N[C@H](C(=O)O)[C@@H](C)O` [FIYM1] (H-KFEKEKMNAKWDT-OH), the IC50 came out at 709 µM.

Regarding `CSCC[C@H](NC(=O)[C@H](CCCCN)NC(=O)[C@H](CCC(=O)O)NC(=O)[C@H](CCCCN)NC(=O)[C@H](CCC(=O)O)NC(=O)[C@H](Cc1ccccc1)NC(=O)[C@@H](N)CCCCN)C(=O)N[C@@H](CC(N)=O)C(=O)N[C@@H](CS)C(=O)N[C@@H](CCCCN)C(=O)N[C@@H](Cc1c[nH]c2ccccc12)C(=O)N[C@@H](CCSC)C(=O)N[C@H](C(=O)O)[C@@H](C)O` [FIYM10] (H-KFEKEKMNCKWMT-OH), the IC50 worked out at 5.7 µM.

With `CSCC[C@H](NC(=O)[C@H](CCCCN)NC(=O)[C@H](CCC(=O)O)NC(=O)[C@H](CCCCN)NC(=O)[C@H](CCC(=O)O)NC(=O)[C@H](Cc1ccccc1)NC(=O)[C@H](CCCCN)NC(=O)[C@@H]1CCCN1C(C)=O)C(=O)N[C@@H](CC(N)=O)C(=O)N[C@@H](CS)C(=O)N[C@@H](CCCCN)C(=O)N[C@@H](Cc1c[nH]c2ccccc12)C(=O)N[C@@H](CCSC)C(=O)N[C@H](C(=O)O)[C@@H](C)O` [FIYM17] (Ac-PKFEKEKMNCKWMT-OH), the IC50 was 144 µM.
